The values that follow come from the supplement of paper PMC4862054.

What all share (test): normalised viability (% of control), CellTiter-Blue; higher = more viable cells (about 100 = DMSO control)
(Alamar Blue is a resazurin reagent that responds to reducing activity.)

Assay [1] deals with CAL-148. The note with it: incubation time: 72 h. On the procedure: (§1)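 DSRT, CellTiter-Blue viability, 72 h incubation. Signal is normalised to DMSO and benzethonium chloride controls. Value is the normalised response at dose 9.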
The subject of assay [2] is CAL-51. The note with it: incubation time: 72 h. The procedure: as §1
Assay [3] has as its system CAL-85-1. The note with it: incubation time: 72 h. The procedure:
as §1

For assay [4], the system named is DU-4475. The note with it: incubation time: 72 h. The procedure: as §1
Assay [5] deals with HDQ-P1. The note with it: incubation time: 72 h. The procedure: as §1
The subject of assay [6] is MDA-MB-453. The note with it: incubation time: 72 h. On the procedure: as §1
For assay [7], the system named is BT-474. The note with it: 100 nM; incubation time: 72 h. The procedure: (§2)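 DSRT, CellTiter-Blue viability, 72 h incubation. Signal is normalised to DMSO and benzethonium chloride controls. Value is the normalised response at dose 3.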
Assay [8] deals with BT-549. The note with it: 100 nM; incubation time: 72 h. The procedure: as §2
Assay [9] has as its system CAL-120. The note with it: 100 nM; incubation time: 72 h. On the procedure:
as §2

Assay [10] deals with CAL-148. The note with it: 10 nM; incubation time: 72 h. The procedure:
as §2

Assay [11] has as its system CAL-51. The note with it: 10 nM; incubation time: 72 h. The procedure:
as §2

The test system of assay [12] is CAL-85-1. The note with it: 10 nM; incubation time: 72 h. The procedure:
as §2

The test system of assay [13] is DU-4475. The note with it: 10 nM; incubation time: 72 h. The procedure:
as §2

Assay [14] has as its system HCC1143. The note with it: 100 nM; incubation time: 72 h. The procedure:
as §2

Assay [15] has as its system HCC1599. The note with it: 100 nM; incubation time: 72 h. On the procedure:
as §2

Assay [16] has as its system HCC1937. The note with it: 100 nM; incubation time: 72 h. On the procedure:
as §2

The test system of assay [17] is HDQ-P1. The note with it: 10 nM; incubation time: 72 h. On the procedure:
as §2

In assay [18] the test system is Hs578T. The note with it: 100 nM; incubation time: 72 h. On the procedure:
as §2

For assay [19], the system named is MDA-MB-231. The note with it: 100 nM; incubation time: 72 h. The procedure:
as §2

The test system of assay [20] is MDA-MB-436. The note with it: 100 nM; incubation time: 72 h. The procedure:
as §2

Assay [21] has as its system MDA-MB-453. The note with it: 10 nM; incubation time: 72 h. The procedure:
as §2

The subject of assay [22] is MDA-MB-468. The note with it: 100 nM; incubation time: 72 h. The procedure:
as §2

Assay [23] deals with MFM-223. The note with it: 100 nM; incubation time: 72 h. The procedure:
as §2

The subject of assay [24] is SK-BR-3. The note with it: 100 nM; incubation time: 72 h. On the procedure:
as §2

Assay [25] relates to BT-474. The note with it: incubation time: 72 h. In a few lines:
(§3)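 Each value is normalised viability at a single listed concentration of the series. Breast cancer cell lines in 384-well plates were incubated 72 h with compound and read by CellTiter-Blue fluorescence at 560/590 nm, with vehicle set to 100 and a positive kill control to 0 on every plate.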

Assay [26] has as its system BT-549. The note with it: incubation time: 72 h. The gist of the method:
as §3

For assay [27], the system named is CAL-120. The note with it: incubation time: 72 h. The gist of the method:
as §3

The subject of assay [28] is CAL-148. The note with it: incubation time: 72 h. The gist of the method:
as §3
The source holds these as a separate data set.

The test system of assay [29] is CAL-51. The note with it: incubation time: 72 h. In a few lines:
as §3
This is another data set of the same source.

Assay [30] deals with CAL-85-1. The note with it: incubation time: 72 h. In a few lines:
as §3
The source holds these as a separate data set.

For assay [31], the system named is DU-4475. The note with it: incubation time: 72 h. In a few lines: as §3
The source holds these as a separate data set.

The subject of assay [32] is HCC1143. The note with it: incubation time: 72 h. In a few lines: as §3
For assay [33], the system named is HCC1599. The note with it: incubation time: 72 h. The gist of the method: as §3
Assay [34] has as its system HCC1937. The note with it: incubation time: 72 h. In a few lines:
as §3

Assay [35] deals with HDQ-P1. The note with it: incubation time: 72 h. In a few lines:
as §3
The source holds these as a separate data set.

The test system of assay [36] is Hs578T. The note with it: incubation time: 72 h. In a few lines:
as §3

Assay [37] relates to MDA-MB-231. The note with it: incubation time: 72 h. In a few lines:
as §3

Assay [38] concerns MDA-MB-436. The note with it: incubation time: 72 h. In a few lines: as §3
The test system of assay [39] is MDA-MB-453. The note with it: incubation time: 72 h. In a few lines: as §3
This is another data set of the same source.

Assay [40] deals with MDA-MB-468. The note with it: incubation time: 72 h. The gist of the method:
as §3

The test system of assay [41] is MFM-223. The note with it: incubation time: 72 h. In a few lines: as §3
Assay [42] has as its system SK-BR-3. The note with it: incubation time: 72 h. In a few lines: as §3

SMILES strings stand for the structures.

With `O=P(O)(O)C(O)(Cn1ccnc1)P(=O)(O)O` [Zoledronic acid] (10000 nM), the normalised viability with CAL-148 [1] turned out to be 96.1%; in the assay with CAL-51 [2], 103%; in the assay on CAL-85-1 [3], 90.4%; in the assay on DU-4475 [4] it was 98%; in the assay on HDQ-P1 [5], 106%; in the assay on MDA-MB-453 [6] it was 82.3%.
In the case of `CC(=O)c1c(C)c2cnc(Nc3ccc(N4CCNCC4)cn3)nc2n(C2CCCC2)c1=O` (10000 nM), the normalised viability is 87.6% in the assay on CAL-148 [1]; 50.8% in the assay with CAL-51 [2]; 78.2% with CAL-85-1 [3]; 85.9% in the assay with DU-4475 [4]; 93.5% with HDQ-P1 [5]; 61.1% in the assay on MDA-MB-453 [6].
As for `C[C@]1(O)C[C@@H](c2nc(-c3ccc4ccc(-c5ccccc5)nc4c3)c3c(N)nccn32)C1` [OSI-906] (10000 nM), the normalised viability amounted to 118% with CAL-148 [1]; 81% in the assay on CAL-51 [2]; 67.4% in the assay on CAL-85-1 [3]; 92.6% in the assay with DU-4475 [4]; 32.4% in the assay with HDQ-P1 [5]; 65.9% in the assay with MDA-MB-453 [6].
Take `O=P(O)(O)C(O)(Cn1ccnc1)P(=O)(O)O` [Zoledronic acid]: the normalised viability worked out at 102% with BT-474 [7]; 101% in the assay on BT-549 [8]; 94.2% in the assay with CAL-120 [9]; 86.5% in the assay with CAL-148 [10]; 116% in the assay on CAL-51 [11]; 90.2% with CAL-85-1 [12]. The normalised viability was 97.7% in the assay on DU-4475 [13]; 89.1% with HCC1143 [14]; 109% in the assay with HCC1599 [15]; 102% with HCC1937 [16]; 91.5% in the assay with HDQ-P1 [17]; 85.3% in the assay on Hs578T [18]. Further, the normalised viability in the assay with MDA-MB-231 [19] was 93.9%; in the assay with MDA-MB-436 [20] it was 113%; in the assay with MDA-MB-453 [21] it was 96.2%; in the assay with MDA-MB-468 [22] it was 117%; in the assay with MFM-223 [23], 91.7%; in the assay with SK-BR-3 [24], 91%. The normalised viability in the assay on BT-474 [25] (10 nM) is 103%; in the assay on BT-474 [25] (1000 nM), 103%; in the assay on BT-474 [25] (10000 nM), 117%; with BT-549 [26] (10 nM) it was 92.5%; with BT-549 [26] (1000 nM), 108%; with BT-549 [26] (10000 nM), 91.3%. In addition, the normalised viability with CAL-120 [27] (10 nM) was 81.2%; in the assay with CAL-120 [27] (1000 nM) it was 98%; in the assay with CAL-120 [27] (10000 nM) it was 91.8%; with CAL-148 [28] (3 nM) it was 92.2%; in the assay on CAL-148 [28] (30 nM), 84.4%; in the assay on CAL-148 [28] (100 nM), 92.6%. The normalised viability in the assay with CAL-51 [29] (3 nM) came out at 108%; in the assay with CAL-51 [29] (30 nM) it was 116%; in the assay on CAL-51 [29] (100 nM), 102%; in the assay on CAL-85-1 [30] (3 nM) it was 91.6%; in the assay with CAL-85-1 [30] (30 nM), 83.2%; in the assay with CAL-85-1 [30] (100 nM), 96.5%. Besides, the normalised viability was 107% in the assay on DU-4475 [31] (3 nM); 95.8% in the assay with DU-4475 [31] (30 nM); 99.8% with DU-4475 [31] (100 nM); 82% with HCC1143 [32] (10 nM); 85.2% with HCC1143 [32] (1000 nM); 85.2% in the assay with HCC1143 [32] (10000 nM). Moreover, the normalised viability in the assay on HCC1599 [33] (10 nM) amounted to 94.1%; with HCC1599 [33] (1000 nM), 75.3%; with HCC1599 [33] (10000 nM), 95.4%; in the assay with HCC1937 [34] (10 nM), 96.4%; in the assay on HCC1937 [34] (1000 nM) it was 95.5%; in the assay with HCC1937 [34] (10000 nM) it was 99.7%. Further, the normalised viability with HDQ-P1 [35] (3 nM) stood at 94.6%; in the assay on HDQ-P1 [35] (30 nM), 91.9%; with HDQ-P1 [35] (100 nM), 84.1%; in the assay with Hs578T [36] (10 nM) it was 95.1%; with Hs578T [36] (1000 nM) it was 113%; in the assay on Hs578T [36] (10000 nM), 98.2%. Further, the normalised viability in the assay with MDA-MB-231 [37] (10 nM) worked out at 92.2%; with MDA-MB-231 [37] (1000 nM), 89.3%; in the assay with MDA-MB-231 [37] (10000 nM) it was 95.9%; in the assay on MDA-MB-436 [38] (10 nM) it was 95%; in the assay with MDA-MB-436 [38] (1000 nM) it was 89.2%; with MDA-MB-436 [38] (10000 nM) it was 94.3%. Further, the normalised viability with MDA-MB-453 [39] (3 nM) is 101%; with MDA-MB-453 [39] (30 nM), 96%; with MDA-MB-453 [39] (100 nM) it was 101%; in the assay with MDA-MB-468 [40] (10 nM) it was 107%; in the assay with MDA-MB-468 [40] (1000 nM), 102%; with MDA-MB-468 [40] (10000 nM), 111%. For the same compound, the normalised viability worked out at 99.3% in the assay with MFM-223 [41] (10 nM); 86.5% in the assay on MFM-223 [41] (1000 nM); 97.2% with MFM-223 [41] (10000 nM); 106% in the assay on SK-BR-3 [42] (10 nM); 93.9% in the assay on SK-BR-3 [42] (1000 nM); 96.5% with SK-BR-3 [42] (10000 nM).
